From publication PMC4977651, “Molecular features of biguanides required for targeting of mitochondrial respiratory complex I and activation of AMP-kinase” (BMC Biology, 2016)
“And” between values parts separate entries of the source, which are not always exact repeats. Identical values can stand only once.

How the values were obtained:
[1] = system: bovine mitochondrial membranes (complexes II-III-IV); experiment: Succinate:O2 oxidoreduction (complexes II-III-IV, complex II assay) by bovine mitochondrial membranes; type: biochemical, Bos taurus; conditions: biguanide concentrations set to the IC50 values for NADH:O2 on bovine membranes; control = 100.00; n = 3
Experimental: (§1) Assays were performed at 32 °C in a SpectraMax 96-well plate reader. NADH:decylubiquinone oxidoreduction by complex I at 0.5 μg mL^−1 was measured in 20 mM Tris-HCl (pH 7.2), 0.15 % soy bean asolectin (Avanti Polar Lipids), and 0.15 % 3-((3-cholamidopropyl)dimethylammonium)-1-propanesulfonate (CHAPS, Merck Chemicals Ltd), with 200 μM decylubiquinone and 200 μM NADH, and monitored using ε340–380(NADH) = 4.81 mM^−1 cm^−1 [23]. Catalysis was initiated by addition of NADH and maximal rates determined by linear regression. NADH:O2 oxidoreduction by membranes was measured similarly but using 5 μg mL^−1 membranes in 10 mM Tris-HCl (pH 7.4) and 250 mM sucrose using 200 μM NADH and supplemented with 0.15 mM horse heart cytochrome c (Sigma-Aldrich Ltd.). Succinate:O2 oxidoreduction was measured using 40 μg mL^−1 membranes in 5 mM succinate in 10 mM Tris-HCl (pH 7.4) as described previously. Control experiments included NaCl (to match the ionic strength) or DMSO, as appropriate.

mouse liver mitochondria = experiment: ADP-stimulated rotenone-sensitive OCR in isolated mouse liver mitochondria; type: biochemical; parameters: rotenone sensitive OCR after ADP stimulation, individual replicates / rotenone sensitive OCR after ADP stimulation, average: unit not given here; conditions: for rotenone sensitive OCR after ADP stimulation, % of control, average / rotenone sensitive OCR after ADP stimulation, average: average of replicates; for rotenone sensitive OCR after ADP stimulation, % of control, individual replicates / rotenone sensitive OCR after ADP stimulation, individual replicates: replicate 1-5
Experimental: (§2) Complex I and mitochondrial membranes were prepared from Bos taurus (bovine) heart. Intact mitochondria were isolated from rat liver and mouse heart and liver. Membranes were prepared from mouse heart mitochondria by 5 s bursts of sonication at 4 °C and collected by centrifugation (75,000 × g, 1 h).
(§3) Isolated mitochondria were monitored using a Seahorse XF96 extracellular flux analyzer at 32 °C. Mouse heart mitochondria, and mouse and rat liver mitochondria were plated into XF96 plates at 4 and 16–20 μg per well, respectively, in 220 mM mannitol, 70 mM sucrose, 10 mM KH2PO4, 5 mM MgCl2, 1 mM EGTA, 0.2 % fatty acid-free BSA, and 2 mM HEPES (pH 7.4 at 37 °C) with 10 mM glutamate and 10 mM malate and adhered by centrifugation (2000 × g, 20 min, 4 °C). The medium was supplemented with a further 5 mM glutamate and 5 mM malate and the mitochondria incubated for 15 min. Then two baseline readings were taken before the biguanides were added at IC50/5. Biguanides were allowed to accumulate for 15–20 min before respiration was […] by the addition of 4 mM ADP. Rotenone (2 μM) was added at the end of the experiment. Data from wells with failed port injections were excluded from the analyses. The RCR values (state III versus state IV respiration) were 3.4, 4.8, and 4.6 for mouse heart, rat liver, and mouse liver, respectively.

[2] = system: acetyl-coA carboxylase (phospho-Ser79); experiment: AMPK activation, western blot of phospho-acetyl-coA carboxylase in MDBK cells; type: cell-based, Bos taurus; conditions: for ACC, average normalised to control: Averages of experiments 1-3, 18 hours; for p-ACC: band intensity
Experimental: MDBK cells were seeded at 1 × 10^6 cells per 6 cm dish in DMEM containing 10 % FBS. […] After 18 h cells were harvested by a rapid lysis procedure: cells were rinsed with PBS, then lysed using ice-cold buffer containing 50 mM HEPES, 1 mM EDTA, 10 % glycerol, 50 mM NaF, 5 mM sodium pyrophosphate, 1 % Triton-X100, 1 mM dithiothreitol (DTT), and a protease inhibitor cocktail (Roche). The cell lysate was centrifuged at 14,000 × g for 20 min at 4 °C and the protein concentration of the supernatant determined by bicinchoninic acid assay. The lysate was analyzed using Novex 3–12 % bis-Tris gels run in 3-(N-morpholino)propanesulfonic acid (MOPS) buffer (20 μg of protein per lane) followed by transfer to low fluorescence polyvinylidene fluoride membranes by wet transfer. Primary rabbit antibodies for AMPK-β (57C12), AMPK-α (phospho-Thr172) (40H9), and acetyl-coA carboxylase (phospho-Ser79) (Cell Signaling Technology) were incubated overnight with the membrane (1:1000 dilution) in Odyssey blocking buffer at 4 °C. A fluorescent secondary antibody was used (IRDYE800CW from LI-COR Biosciences, 1:20,000 dilution) with a LI-COR Odyssey imaging system.

rat liver mitochondria = experiment: ADP-stimulated rotenone-sensitive OCR in isolated rat liver mitochondria; type: biochemical; parameters: rotenone sensitive OCR after ADP stimulation, individual replicates / rotenone sensitive OCR after ADP stimulation, average: unit not given here; conditions: for rotenone sensitive OCR after ADP stimulation, % of control, average / rotenone sensitive OCR after ADP stimulation, average: average of replicates; for rotenone sensitive OCR after ADP stimulation, % of control, individual replicates / rotenone sensitive OCR after ADP stimulation, individual replicates: replicate 1-5
Experimental: as §2, §3

[3] = molecular target: bovine heart mitochondrial membranes (complex I) (Bos taurus, UniProt P03887+P03898+P17694+P42026); experiment: NADH:O2 oxidoreduction by bovine heart mitochondrial membranes (complexes I-III-IV); type: biochemical
Experimental: as §2, §1
Experimental values are reported as mean averages ± standard deviation (SD) of technical replicates for large sample sizes and mean averages ± standard error of the mean (SEM) of technical replicates for small sample sizes. Data were analyzed by the unpaired two-tailed Student’s t test. IC50 values were determined using the standard dose-effect relationship (activity (%) = 100 × IC50 / (IC50 + [inhibitor]^m) with the Hill Slope (m) set to unity for purified complex I) and are reported with 95 % confidence intervals.

Sequence of bovine heart mitochondrial membranes (complex I) (P42026 38-216): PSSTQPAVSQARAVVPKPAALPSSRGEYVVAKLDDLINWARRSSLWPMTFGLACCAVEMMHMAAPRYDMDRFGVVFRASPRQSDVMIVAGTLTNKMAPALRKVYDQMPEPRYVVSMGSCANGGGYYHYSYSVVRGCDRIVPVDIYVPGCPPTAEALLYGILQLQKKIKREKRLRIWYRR
Sequence of bovine heart mitochondrial membranes (complex I) (P17694 34-463): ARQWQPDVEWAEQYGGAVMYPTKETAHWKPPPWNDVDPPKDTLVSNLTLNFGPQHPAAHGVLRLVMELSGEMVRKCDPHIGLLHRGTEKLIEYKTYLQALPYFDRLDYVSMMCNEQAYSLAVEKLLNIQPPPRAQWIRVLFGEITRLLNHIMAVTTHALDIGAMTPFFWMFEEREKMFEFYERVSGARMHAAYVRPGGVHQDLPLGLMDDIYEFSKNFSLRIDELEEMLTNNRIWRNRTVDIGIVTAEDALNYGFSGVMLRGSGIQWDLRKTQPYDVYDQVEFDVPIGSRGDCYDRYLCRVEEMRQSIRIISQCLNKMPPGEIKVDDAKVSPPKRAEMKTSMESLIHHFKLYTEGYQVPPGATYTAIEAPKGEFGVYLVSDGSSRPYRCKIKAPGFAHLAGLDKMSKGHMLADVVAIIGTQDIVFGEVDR
Sequence of bovine heart mitochondrial membranes (complex I) (P03887 whole entry): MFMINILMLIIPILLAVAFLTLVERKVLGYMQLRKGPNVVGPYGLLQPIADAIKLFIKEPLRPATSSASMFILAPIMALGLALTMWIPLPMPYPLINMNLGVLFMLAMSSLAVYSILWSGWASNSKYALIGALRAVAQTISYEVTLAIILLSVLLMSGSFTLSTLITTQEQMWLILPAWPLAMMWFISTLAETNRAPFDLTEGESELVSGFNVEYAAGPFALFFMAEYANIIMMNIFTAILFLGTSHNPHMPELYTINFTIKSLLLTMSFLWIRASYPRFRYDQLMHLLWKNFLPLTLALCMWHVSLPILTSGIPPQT
Sequence of bovine heart mitochondrial membranes (complex I) (P03898 whole entry): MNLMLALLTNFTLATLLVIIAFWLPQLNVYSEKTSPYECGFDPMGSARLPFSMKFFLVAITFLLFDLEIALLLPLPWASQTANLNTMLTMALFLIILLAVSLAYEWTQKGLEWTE

SMILES | Complex II assay (succinate:O2 oxidoreduction), average [1] | rotenone sensitive OCR after ADP stimulation, % of control, average (mouse liver mitochondria) | rotenone sensitive OCR after ADP stimulation, average (mouse liver mitochondria) | rotenone sensitive OCR after ADP stimulation, % of control, individual replicates (mouse liver mitochondria) | rotenone sensitive OCR after ADP stimulation, individual replicates (mouse liver mitochondria) | ACC, average normalised to control [2] | p-ACC / AMPK beta ([2]; Experiment 1, 18 hours) | p-ACC / AMPK beta normalised to control ([2]; Experiment 1, 18 hours) | p-ACC ([2]; Experiment 1, 18 hours) | p-ACC / AMPK beta ([2]; Experiment 2, 18 hours) | p-ACC / AMPK beta normalised to control ([2]; Experiment 2, 18 hours) | p-ACC ([2]; Experiment 2, 18 hours) | p-ACC / AMPK beta ([2]; Experiment 3, 18 hours) | p-ACC / AMPK beta normalised to control ([2]; Experiment 3, 18 hours) | p-ACC ([2]; Experiment 3, 18 hours) | rotenone sensitive OCR after ADP stimulation, % of control, average (rat liver mitochondria) | rotenone sensitive OCR after ADP stimulation, average (rat liver mitochondria) | rotenone sensitive OCR after ADP stimulation, % of control, individual replicates (rat liver mitochondria) | rotenone sensitive OCR after ADP stimulation, individual replicates (rat liver mitochondria) | other results
CC(C)N=C(N)N=C(N)N [compound 4, 1-(diaminomethylidene)-2-(propan-2-yl)guanidine] | 101.59 | 19.19 % of control | 6.66 | 21.16 % of control and 18.53 % of control and 17.88 % of control | 7.34 and 6.43 and 6.20 | 13.65 | 2.64 | 13.60 | 1170 | 2.65 | 16.42 | 693 | 3.25 | 10.92 | 641 | 8.94 % of control | 2.45 | 10.19 % of control and 7.26 % of control and 8.19 % of control and 10.12 % of control | 2.79 and 1.99 and 2.25 and 2.77 | remaining activity at 620 µM ([3]; bovine heart mitochondrial membranes, inhibitor 0.62 mM, read-out: average % (rate, % of no-inhibitor control)): 96.7%; remaining activity at 1560 µM ([3]; bovine heart mitochondrial membranes, inhibitor 1.56 mM, read-out: average % (rate, % of no-inhibitor control)): 95.7%; remaining activity at 3120 µM ([3]; bovine heart mitochondrial membranes, inhibitor 3.12 mM, read-out: average % (rate, % of no-inhibitor control)): 92.6%; remaining activity at 6250 µM ([3]; bovine heart mitochondrial membranes, inhibitor 6.25 mM, read-out: average % (rate, % of no-inhibitor control)): 84.6%; remaining activity at 12500 µM ([3]; bovine heart mitochondrial membranes, inhibitor 12.50 mM, read-out: average % (rate, % of no-inhibitor control)): 72.6%; remaining activity at 25000 µM ([3]; bovine heart mitochondrial membranes, inhibitor 25.00 mM, read-out: average % (rate, % of no-inhibitor control)): 56.6%; remaining activity at 50000 µM ([3]; bovine heart mitochondrial membranes, inhibitor 50.00 mM, read-out: average % (rate, % of no-inhibitor control)): 32.5%; LogIC50 (best fit value) ([3]; log of concentration in mM, sample given as Bovine heart mitochondrial membranes, Prism variable slope fit, Bottom 0, Top 100): 1.46; IC50 ([3]; sample given as Bovine heart mitochondrial membranes, Prism log(inhibitor) vs. response variable slope fit (four parameters), Bottom 0, Top 100, read-out: IC50 (best fit value)): 28.8 mM; HillSlope (best fit value) ([3]; sample given as Bovine heart mitochondrial membranes, Prism variable slope fit, Bottom 0, Top 100): -1.156
[H]/N=C(/N)N/C(=N/[H])NCCc1ccccc1 [phenformin, reference compound] | 95.51 | 29.95 % of control | 10.39 | 29.69 % of control and 34.49 % of control and 19.77 % of control and 35.85 % of control | 10.30 and 11.97 and 6.86 and 12.44 | 7.37 | 1.27 | 6.56 | 586 | 1.60 | 9.93 | 598 | 1.68 | 5.62 | 404 | 22.17 % of control | 6.08 | 23.43 % of control and 20.89 % of control and 22.08 % of control and 22.26 % of control | 6.42 and 5.73 and 6.05 and 6.10 | –
